Earlier results, collected in US20240041762A1 (Zambon S.p.A., priority 2020, published 2024).

Key:
[1] = tested on: invasive aspergillosis; conditions: in vivo

ELF exposure as fraction of the plasma concentration (healthy volunteers)	concentration in the alveolar cells with respect to the plasma concentration (healthy volunteers)	concentrations in bronchoalveolar lavage fluid and lung tissue, times lower than plasma (other cases) [times]	Structure (SMILES)	activity against invasive aspergillosis [1]
approximately ⅓	more than double	10	CCC(C)n1ncn(-c2ccc(N3CCN(c4ccc(OCC5COC(Cn6cncn6)(c6ccc(Cl)cc6Cl)O5)cc4)CC3)cc2)c1=O (stereo not shown) [itraconazole]	
			OC(Cn1cncn1)(Cn1cncn1)c1ccc(F)cc1F [Fluconazole]	not active
